# pIC50: −log10 of the molar value. “And” between values parts separate entries of the source, which are not always exact repeats. Equal values may be shown once.
# Target: T1, Human Aryl Hydrocarbon Receptor (AhR) (Homo sapiens, UniProt P35869)
# T1 construct: purchased INDIGO Bioscience #1B06001-32; host or cells: AhR Reporter Cell (kit's proprietary reporter cells)
# T1 sequence (P35869 11-848): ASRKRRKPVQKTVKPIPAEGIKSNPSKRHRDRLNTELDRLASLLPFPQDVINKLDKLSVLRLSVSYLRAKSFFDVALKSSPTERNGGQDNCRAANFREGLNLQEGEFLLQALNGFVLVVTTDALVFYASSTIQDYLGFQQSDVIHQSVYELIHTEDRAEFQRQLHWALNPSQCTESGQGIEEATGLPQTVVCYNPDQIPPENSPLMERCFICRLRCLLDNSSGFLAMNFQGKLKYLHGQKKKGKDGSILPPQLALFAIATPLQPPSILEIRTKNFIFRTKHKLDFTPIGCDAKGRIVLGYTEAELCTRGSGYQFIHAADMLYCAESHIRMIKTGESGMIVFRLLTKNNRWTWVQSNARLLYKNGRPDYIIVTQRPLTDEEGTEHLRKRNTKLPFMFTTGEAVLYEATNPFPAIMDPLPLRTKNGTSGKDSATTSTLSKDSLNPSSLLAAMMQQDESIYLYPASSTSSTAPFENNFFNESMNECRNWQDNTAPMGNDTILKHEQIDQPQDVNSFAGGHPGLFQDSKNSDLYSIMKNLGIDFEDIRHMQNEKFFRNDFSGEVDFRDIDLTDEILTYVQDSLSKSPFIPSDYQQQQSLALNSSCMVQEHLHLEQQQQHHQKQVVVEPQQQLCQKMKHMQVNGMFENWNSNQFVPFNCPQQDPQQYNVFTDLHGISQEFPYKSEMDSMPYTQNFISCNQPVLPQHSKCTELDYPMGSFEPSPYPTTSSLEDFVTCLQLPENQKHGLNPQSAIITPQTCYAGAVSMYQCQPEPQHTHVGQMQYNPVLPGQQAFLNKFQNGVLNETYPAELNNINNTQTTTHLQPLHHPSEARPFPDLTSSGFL
# Assay: AHR antagonist reporter assay in human cell line (INDIGO AhR Reporter Assay System, kynurenic acid activated)
# Format: cell-based
# Details: 200 μM kynurenic acid, 24 hours, luciferase; read-out: AhR Reporter Assay KA Antagonist Mode: IC50
# Experimental: The AhR reporter assay was performed following the protocol of the Human Aryl Hydrocarbon Receptor (AhR) Reporter Assay System (INDIGO Bioscience, #1B06001-32). AhR Reporter Cell was thawed and pre-incubated in Cell Recovery Medium (CRM) for 6 hours. The media was then removed and the cells were incubated with Compound Screening Medium (CSM) supplemented with 200 μM kynurenic acid for 24 hours in the absence (negative control) or presence of increasing concentrations of test compounds (typical dilution: […], 3.2 nM, 16 nM, 80 nM, 400 nM, 2 μM, 10 μM in duplicates). For positive inhibition control, cells activated with 200 μM kynurenic acid were incubated in the presence of literature AHR antagonists; alternatively un-activated cells were used as positive inhibition control. Following 24 hours incubation, the media was removed and Luciferase Detection Reagent (LDR) added. The firefly luciferase activity was quantified using a plate reader. Results were normalized by positive and negative controls.
row,Structure (SMILES),pIC50
1,COC[C@H](C)NC(=O)c1cc(-c2cnc(C(C)=O)s2)nn(-c2cnn(C)c2)c1=O [Compound 87],< 6.40
2,COC[C@H](C)NC(=O)c1cc(-c2ccc3c(c2)OCO3)nn(-c2cnn(C)c2)c1=O [Compound 140],< 6.40
3,COC[C@H](C)NC(=O)c1cc(-c2ccc3cnccc3c2)nn(-c2cnn(C)c2)c1=O [Compound 133],< 6.40
4,COC[C@H](C)NC(=O)c1cc(-c2ccc3ncccc3c2)nn(-c2cnn(C)c2)c1=O [Compound 126],< 6.40
5,CN(C)C(=O)CNC(=O)c1cc(-c2ccc(Cl)cc2)nn(-c2cnn(C)c2)c1=O [Compound 36],< 6.40
6,CNCC(C)NC(=O)c1cc(-c2ccc(Cl)cc2)nn(-c2cccc(F)c2)c1=O (stereo not drawn) [Compound 15],< 6.40
7,COC[C@H](C)NC(=O)c1cc(C2CCCCC2)nn(-c2cnn(C)c2)c1=O [Compound 115],< 6.40
8,COC[C@H](C)NC(=O)c1cc(N2C(=O)C(C)(C)c3ccccc32)nn(-c2cnn(C)c2)c1=O [Compound 134],< 6.40
9,CNC(=O)CNC(=O)c1cc(-c2ccc(Cl)cc2)nn(-c2cnn(C)c2)c1=O [Compound 35],< 6.40
10,COC[C@H](C)NC(=O)c1cc(-c2cc(F)c3ncccc3c2F)nn(-c2cnn(C)c2)c1=O [Compound 144],< 6.40
11,COCCNC(=O)c1cc(-c2ccc(Cl)cc2)nn(-c2cccc(F)c2)c1=O [Compound 6],< 6.40
12,CNCCNC(=O)c1cc(-c2ccc(Cl)cc2)nn(-c2cnn(C)c2)c1=O [Compound 46],< 6.40
13,COC[C@H](C)NC(=O)c1cc(N2CCC(C)CC2)nn(-c2cnn(C)c2)c1=O [Compound 114],< 6.40
14,C[C@@H](CO)NC(=O)c1cc(-c2ccc(C(=O)N(C)C)cc2)nn(-c2cccc(F)c2)c1=O [Compound 179],< 6.40
15,CN(C)C(=O)C(C)(C)NC(=O)c1cc(-c2ccc(C(F)(F)F)nc2)nn(-c2cnn(C)c2)c1=O [Compound 166],< 6.40
16,CC(=O)N1CC(NC(=O)c2cc(-c3ccc(Cl)cc3)nn(-c3cccc(F)c3)c2=O)C1 [Compound 30],< 6.40
17,CN(C)CCNC(=O)c1cc(-c2ccc(Cl)cc2)nn(-c2cnn(C)c2)c1=O [Compound 47],< 6.40
18,COC[C@H](C)NC(=O)c1cc(-c2ccc(F)c(F)c2)nn(-c2cnn(C)c2)c1=O [Compound 103],< 6.40
19,COC[C@H](C)NC(=O)c1cc(-c2ccc3oc(C)nc3c2)nn(-c2cnn(C)c2)c1=O [Compound 124],< 6.40
20,COC[C@H](C)NC(=O)c1cc(-c2ccccc2Cl)nn(-c2cnn(C)c2)c1=O [Compound 118],< 6.40
21,COC[C@H](C)NC(=O)c1cc(-c2ccc(F)c(Cl)c2)nn(-c2cnn(C)c2)c1=O [Compound 102],< 6.40
22,COC[C@H](C)NC(=O)c1cc(-c2ccc(C)cn2)nn(-c2cnn(C)c2)c1=O [Compound 67],< 6.40 and > 7.00
23,COC[C@H](C)NC(=O)c1cc(-n2cc(C(F)(F)F)cn2)nn(-c2cnn(C)c2)c1=O [Compound 136],< 6.40
24,C[C@@H](CO)NC(=O)c1cc(-c2ccc(-c3ccc4ncccc4c3)nc2)nn(-c2cnn(C)c2)c1=O [Compound 196],< 6.40
25,CC(NC(=O)c1cc(-c2ccc(Cl)cc2)nn(-c2cccc(F)c2)c1=O)C(=O)O (stereo not drawn) [Compound 10],< 6.40
26,C[C@H](NC(=O)c1cc(-c2ccc(C(=O)N(C)C)cc2)nn(-c2cccc(F)c2)c1=O)C(=O)N(C)C [Compound 178],< 6.40
27,COC[C@H](C)NC(=O)c1cc(N2CC3(CCCC3)C2)nn(-c2cnn(C)c2)c1=O [Compound 110],< 6.40
28,CN(CCO)C(=O)c1cc(-c2ccc(Cl)cc2)nn(-c2cccc(F)c2)c1=O [Compound 22],< 6.40

# Next, values leading:
row,pIC50,Structure (SMILES)
1,< 6.40,C[C@@H](CO)NC(=O)c1cc(N2CCC(c3ccc(F)cc3)CC2)nn(-c2cnn(C)c2)c1=O [Compound 207]
2,> 7.00,C[C@@H](CO)NC(=O)c1cc(-n2cc(-c3ccc(Cl)cc3)cn2)nn(-c2cnn(C)c2)c1=O [Compound 161]
3,> 7.00,C[C@H](NC(=O)c1cc(-c2ccc(-c3ccc(Cl)cc3)cc2)nn(-c2cnn(C)c2)c1=O)C(=O)N(C)C [Compound 147]
4,> 7.00,CNC(=O)C(C)(C)NC(=O)c1cc(-c2ccc(Cl)cc2)nn(-c2cnn(C)c2)c1=O [Compound 95]
5,> 7.00,COC[C@H](C)NC(=O)c1cc(-c2ccc(Cl)cc2)nn(-c2cccc(F)c2)c1=O [Compound 97]
6,> 7.00,CN1CCCC[C@H](NC(=O)c2cc(-c3ccc(C(F)(F)F)nc3)nn(-c3cnn(C)c3)c2=O)C1=O [Compound 172]
7,> 7.00,C[C@@H](CO)NC(=O)c1cc(-c2ccc(-c3cccc(F)c3)nc2)nn(-c2cnn(C)c2)c1=O [Compound 191]
8,> 7.00,COC[C@H](C)NC(=O)c1cc(-c2ccc3c(c2)OCC3)nn(-c2cnn(C)c2)c1=O [Compound 112]
9,> 7.00,C[C@H](NC(=O)c1cc(-c2ccc(OC(F)(F)F)cc2)nn(-c2cnn(C)c2)c1=O)C(=O)N(C)C [Compound 146]
10,< 6.40,COC[C@H](C)NC(=O)c1cc(-c2ccc3c(c2)N(C)CC3)nn(-c2cnn(C)c2)c1=O [Compound 141]
11,< 6.40,COC[C@H](C)NC(=O)c1cc(-n2nc(C(F)(F)F)cc2C)nn(-c2cnn(C)c2)c1=O [Compound 143]
12,< 6.40,COC[C@H](C)NC(=O)c1cc(-c2cnc(N)nc2)nn(-c2cnn(C)c2)c1=O [Compound 91]
13,6.40 to 7.00,COC[C@H](C)NC(=O)c1cc(-c2ccc(C)cc2)nn(-c2cnn(C)c2)c1=O [Compound 68]
14,> 7.00,COC[C@H](C)NC(=O)c1cc(-c2cnc(C(C)C)s2)nn(-c2cnn(C)c2)c1=O [Compound 88]
15,< 6.40,C[C@H](NC(=O)c1cc(-n2ncc(-c3ccc(Cl)cc3)n2)nn(-c2cnn(C)c2)c1=O)C(=O)N(C)C [Compound 188]
16,< 6.40,COC[C@H](C)NC(=O)c1cc(-c2ccc3nc(N)ccc3c2)nn(-c2cnn(C)c2)c1=O [Compound 131]
17,< 6.40,COC[C@H](C)NC(=O)c1cc(-n2ccc(C3CC3)n2)nn(-c2cnn(C)c2)c1=O [Compound 137]
18,< 6.40,CN(CCN)C(=O)c1cc(-c2ccc(Cl)cc2)nn(-c2cccc(F)c2)c1=O [Compound 23]
19,< 6.40,CC(=O)N(C)CC(C)NC(=O)c1cc(-c2ccc(Cl)cc2)nn(-c2cccc(F)c2)c1=O (stereo not drawn) [Compound 3]
20,> 7.00,C[C@H](NC(=O)c1cc(-c2cnc(-c3ccc(Cl)cc3)nc2)nn(-c2cnn(C)c2)c1=O)C(=O)N(C)C [Compound 182]
21,> 7.00,COC[C@H](C)NC(=O)c1cc(-n2ccc(-c3ccc(Cl)cc3)n2)nn(-c2cnn(C)c2)c1=O [Compound 142]
22,> 7.00,C[C@@H](CO)NC(=O)c1cc(N2CCN(c3cccc(F)c3)CC2)nn(-c2cnn(C)c2)c1=O [Compound 210]
23,> 7.00,O=C(NC1CCCCNC1=O)c1cc(-c2ccc(Cl)cc2)nn(-c2cccc(F)c2)c1=O (stereo not drawn) [Compound 28]

# Test system: AHR-regulated gene CYP1A1 in human monocytic U937 cell line
# Assay: AHR-regulated CYP1A1 expression in U937 cells (qPCR, kynurenic acid stimulated)
# Format: cell-based
# Details: U-937, 200 μM KA, 16 hours, CYP1A1 vs GAPDH, read-out: Cyp ANATAG mode assay: IC50
# Experimental: To evaluate the AHR inhibitory activity of the test compounds, quantitative PCR analysis was used to determine expression level of the AHR-regulated gene CYP1A1 in a human monocytic U937 cell line upon stimulation of 200 μM kynurenic acid (KA) in the absence or presence of AHR inhibitor. U937 cells were seeded at a concentration of 5×10^5 cells/well in 200 μL of growth medium in 96-well cell culture microplates. CYP1A1 expression was induced with 200 μM KA (positive control) in the absence or presence of the test compounds for 16 hours. Human U937 cells were typically incubated with eight different concentrations of test compounds (typical dilution: […], 3.2 nM, 16 nM, 80 nM, 400 nM, 2 μM, 10 μM) and analyzed in duplicate on the same cell culture microplate. After stimulation, the media was removed, the cell RNA was isolated using RNeasy Mini Kit (Qiagen, 74104) and reverse-transcribed to cDNA using PrimeScript RT reagent Kit (Perfect Real Time) (TaKaRa, RR037A). Unstimulated cells were used as the negative control. Taqman probes for human CYP1A1 (Hs01054797_g1) and human GAPDH (Hs02786624_g1) were used to analyze fold expression of CYP1A1 of GAPDH.
row,pIC50,Structure (SMILES)
1,6.40 to 7.00,C[C@@H](CO)NC(=O)c1cc(N2CCC(c3ccc(F)cc3)CC2)nn(-c2cnn(C)c2)c1=O [Compound 207]
2,> 7.00,C[C@@H](CO)NC(=O)c1cc(-n2cc(-c3ccc(Cl)cc3)cn2)nn(-c2cnn(C)c2)c1=O [Compound 161]
3,> 7.00,C[C@H](NC(=O)c1cc(-c2ccc(-c3ccc(Cl)cc3)cc2)nn(-c2cnn(C)c2)c1=O)C(=O)N(C)C [Compound 147]
4,> 7.00,CNC(=O)C(C)(C)NC(=O)c1cc(-c2ccc(Cl)cc2)nn(-c2cnn(C)c2)c1=O [Compound 95]
5,> 7.00,COC[C@H](C)NC(=O)c1cc(-c2ccc(Cl)cc2)nn(-c2cccc(F)c2)c1=O [Compound 97]
6,> 7.00,CN1CCCC[C@H](NC(=O)c2cc(-c3ccc(C(F)(F)F)nc3)nn(-c3cnn(C)c3)c2=O)C1=O [Compound 172]
7,> 7.00,C[C@@H](CO)NC(=O)c1cc(-c2ccc(-c3cccc(F)c3)nc2)nn(-c2cnn(C)c2)c1=O [Compound 191]
8,6.40 to 7.00,COC[C@H](C)NC(=O)c1cc(-c2ccc3c(c2)OCC3)nn(-c2cnn(C)c2)c1=O [Compound 112]
9,> 7.00,C[C@H](NC(=O)c1cc(-c2ccc(OC(F)(F)F)cc2)nn(-c2cnn(C)c2)c1=O)C(=O)N(C)C [Compound 146]

# Reference: patent US20240351988A1, “ARYL HYDROCARBON RECEPTOR MODULATORS AND THEIR USE IN THE TREATMENT OF DISEASES AND DISORDERS” (Allianthera (Suzhou) Biopharmaceutical Co., Ltd., priority 2021, published 2024)
